The source of these data is patent US8569324B2, “Potentiator for radiation therapy comprising pyridine derivative as active ingredient” (Taiho Pharmaceutical Co., Ltd., priority 2005, dated 2013).

SMILES strings stand for the structures.

Data set [1] has as its system human lung cancer LC-11 strain. In words: Comparative Example 1: radiotherapy enhancing effect of cisplatin on human lung cancer LC-11 strain transplanted into nude mice. The format is in vivo, BALB/cA-nu mouse. Here is the method: (a) Preparation of test solution I: The cisplatin solution (0.5 mg/mL) available from Bristol-Myers Squibb Company was used as it was. 0.1 mL per mouse body weight 10 g was administered for the dose of cisplatin 5 mg/kg, and […] per mouse body weight 10 g was administered for the dose of 7.5 mg/kg. (b) Method for radiation (X-ray) irradiation: Local irradiation was performed on a human tumor strain transplanted into the right femoral region of the mouse using MBR-1505R Type 2 X-ray Irradiation System of Hitachi Medical Corporation under an irradiation condition (irradiation position) so that exposure per mouse should be 2 Gy or 5 Gy. To prevent systemic irradiation, mice were placed in a storage box made of lead so that only their right leg should be exposed to radiation. (c) Test: The human lung cancer LC-11 strain subcutaneously transplanted into the back of a BALB/cA-nu mouse and grown beforehand were removed, cut into small fragments of about 2×2 mm^2 with scissors in physiological saline, and subcutaneously transplanted into the right femoral region of 5 to 6-week-old mice of the same strain with a transplantation needle. The mice were bred for at least 1 to 2 weeks and divided into the control group, the radiation alone group, the drug alone group, and the drug plus radiation group, so that the tumor volume and standard deviation (S.D.) in each group (n=6 per group) should be as uniform as possible. Then, drug administration and X-ray irradiation were initiated. For the drug treatment group, 0.1 mL per body weight 10 g of a cisplatin solution for the dose of 5 mg/kg or […] per body weight 10 g of this solution for the dose of 7.5 mg/kg was administered into the caudal vein on day 1. The radiation group was irradiated with 2 Gy of X-ray in the above-described manner on day 1, at the start of the test, and on day 8. For tumor-bearing mice in the control group (non-radiation/non-drug treatment group) and the radiation alone group, physiological saline was administered into the caudal vein on day 1. By using the above-mentioned numerical formula 1, the tumor volume of each mouse in each group was obtained prior to the start of treatment experiment, on days 3, 5, 8 (1 week later) and 11 during the treatment period, and days 15 (2 weeks later), 18, 22 (3 weeks later), 25, and 29 (4 weeks later) after completion of treatment. A relative tumor volume (RTV) to the tumor volume at the start of the test was obtained for each mouse. Then, the mean tumor growth inhibition rate (IR; %) in each treatment group based on the control group was obtained by using the above-mentioned numerical formula 2 on days 15, at the end of the treatment period, and 29, at 4 weeks later, and shown in Table 3.

Data set [2] relates to human lung cancer strain (LC-11). In words: Test Example 2: radiotherapy enhancing effect of CNDP on human lung cancer strain LC-11 transplanted into nude mice. The format is in vivo, BALB/cA-nu mouse. Here is the method: (a) Preparation of test solution: 3-Cyano-2,6-dihydroxypyridine (CNDP) was suspended in a 0.5% (W/V) hydroxypropylmethylcellulose (HPMC) solution at concentrations of 2.5 and 5.0 mg/mL, and the suspension was stirred with a stirrer at room temperature for about 10 minutes and ultrasonicated for about 5 minutes with ice cooling to obtain a drug solution of 25 or 50 mg/kg/day as CNDP. (b) Method for radiation (X-ray) irradiation: Local irradiation was performed on a human tumor strain transplanted into the right femoral region of the mouse using MBR-1505R Type 2 X-ray Irradiation System of Hitachi Medical Corporation under an irradiation condition (irradiation position) so that exposure per mouse should be 2 Gy or 5 Gy. To prevent systemic irradiation, mice were placed in a storage box made of lead so that only their right leg should be exposed to radiation. (c) Test: The human lung cancer strain (LC-11) subcutaneously transplanted into the back of a BALB/cA-nu mouse and grown beforehand were removed, cut into small fragments of about 2×2 mm^2 with scissors in physiological saline, and subcutaneously transplanted into the right femoral region of 5 to 6-week-old mice of the same strain with a transplantation needle. The mice were bred for at least 1 to 2 weeks and divided into the control group, the radiation alone group, the drug alone group, and the drug plus radiation group, so that the tumor volume and standard deviation (S.D.) in each group (n=6 per group) should be as uniform as possible. Then, drug administration and X-ray irradiation were initiated. The drug treatment group was orally administered with 0.1 mL of the above-described 5 mg/mL CNDP drug solution per body weight 10 g once daily for 14 consecutive days using a sonde for oral administration. The radiation group was irradiated with 2 Gy or 5 Gy of X-ray within about 1 hour after administration of the CNDP drug solution in the above-described manner on day 1, at the start of the test, and on day 8. Tumor-bearing mice in the control group (non-radiation/non-drug treatment group) and the radiation alone group were orally administered with […] solution alone in the same manner for 14 consecutive days.
By using the above-mentioned numerical formula 1, the tumor volume of each mouse in each group was obtained prior to the start of treatment experiment, on days 3, 5, 8, (1 week later) and 11 during the treatment period, and day 15 (2 weeks later) after completion of treatment. A relative tumor volume (RTV) to the tumor volume at the start of the test was obtained for each mouse (FIG. 1).

In the case of `[NH2][Pt]([NH2])([Cl])[Cl]` [CDDP, cisplatin], the “IR (%) Day 15” value in data set [1] (CDDP 5.0 mg/kg caudal vein on day 1 + X-ray 2 Gy on days 1 and 8, Day 15) is reported as 53.8%; in data set [1] (CDDP 5.0 mg/kg caudal vein on day 1, no X-ray, Day 15) it was 39.9%; in data set [1] (CDDP 7.5 mg/kg caudal vein on day 1 + X-ray 2 Gy on days 1 and 8, Day 15), 54.6%; in data set [1] (CDDP 7.5 mg/kg caudal vein on day 1, no X-ray, Day 15) it was 55.8%. Besides, the “IR (%) Day 29” value came out at 46.8% in data set [1] (CDDP 5.0 mg/kg caudal vein on day 1 + X-ray 2 Gy on days 1 and 8, Day 29); 45.6% in data set [1] (CDDP 5.0 mg/kg caudal vein on day 1, no X-ray, Day 29); 66.8% in data set [1] (CDDP 7.5 mg/kg caudal vein on day 1 + X-ray 2 Gy on days 1 and 8, Day 29); 60.2% in data set [1] (CDDP 7.5 mg/kg caudal vein on day 1, no X-ray, Day 29). The “enhancement of antitumor effects by combination compared with CDDP alone” value in data set [1] (CDDP 5 mg/kg or 7.5 mg/kg and 2-Gy X-ray irradiation) is reported as “did not significantly enhance antitumor effects”. Also, the radiotherapy enhancing effect entry in data set [1] (series of examinations using human lung cancer LC-11 strain) is on record as “very weak”.

On to `N#Cc1ccc(O)nc1O` [CNDP, 3-cyano-2,6-dihydroxypyridine], for which the “Tumor growth inhibition rate (IR) (%) Day 11” value in data set [2] (CNDP 25 mg/kg oral once daily + X-ray 2 Gy on days 1 and 8, Day 11) was 44.7%; in data set [2] (CNDP 50 mg/kg oral once daily 14 days, X-ray 0 Gy, Day 11), 1.8%; in data set [2] (CNDP 50 mg/kg oral once daily + X-ray 2 Gy on days 1 and 8, Day 11), 44.4%. The “Tumor growth inhibition rate IR(%) Day 15” value in data set [2] (CNDP 25 mg/kg oral once daily + X-ray 2 Gy on days 1 and 8, Day 15) is on record as 54.6%; in data set [2] (CNDP 50 mg/kg oral once daily 14 days, X-ray 0 Gy, Day 15) it was 8.2%; in data set [2] (CNDP 50 mg/kg oral once daily + X-ray 2 Gy on days 1 and 8, Day 15), 60.4%. In addition, the “enhancement of the antitumor effect of X-ray” value in data set [2] (CNDP 25 and 50 mg/kg with 2-Gy X-ray irradiation in combination) is listed as “significantly increased the antitumor effect of 2-Gy X-ray”. The “antitumor effect of drug alone” value in data set [2] (CNDP alone, high dose of 50 mg/kg) is listed as “hardly showed any antitumor effect”. Further, in data set [2] (mice receiving CNDP and X-ray in combination), the “serious adverse drug reactions (body weight loss, skin disorders)” value is “no serious adverse drug reactions such as body weight loss and skin disorders were observed”.
